What all share (assay): NCI anticancer screen, dose series, 48 h
In assay [1] the test system is BT-549 breast.
For assay [2], the system named is K-562 leukemia.
Assay [3] deals with SF-539 CNS.
In assay [4] the test system is OVCAR-4 ovarian.
The subject of assay [5] is HCT-116 colon.
Assay [6] concerns MDA-MB-435.
The subject of assay [7] is HL-60(TB) leukemia.
For assay [8], the system named is U251 CNS.
The subject of assay [9] is IGROV1 ovarian.
The subject of assay [10] is TK-10 renal.

These results are taken from PubChem BioAssay (NCI).

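Assay format: 96-well plates, 48-hour exposure. Here, GI50 denotes the concentration required for 50% inhibition of growth. TGI: total growth inhibition.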

In the case of `NC(N)=N/N=C/c1cccc(Cl)c1Cl`, the GI50 in assay [1] was 13.2 µM; in assay [2], 3.92 µM; in assay [3], 15.6 µM; in assay [4], 13 µM; in assay [5], 3.24 µM; in [6], 1.77 µM. Moreover, the GI50 in assay [7] is 3.46 µM; in [8], 3.4 µM; in [9], 11 µM; in assay [10], 11.9 µM. Moreover, the TGI in assay [1] worked out at 28.7 µM; in assay [2] it was 13.9 µM; in assay [3], 31.2 µM; in assay [4], 26.8 µM; in assay [5], 10.8 µM; in assay [6], 3.89 µM. Moreover, the TGI in assay [7] was 8.16 µM; in assay [8] it was 13.2 µM; in [9], 25.6 µM; in assay [10], 24.4 µM.
Take `COc1ccc(NC(=O)c2sc3nc(C)c(C(O)c4ccc(OC)cc4)cc3c2N)cc1` (centres undefined): the GI50 in [1] was 1.81 µM; in [2], 0.509 µM; in assay [3] it was 1.02 µM; in assay [4], 5.12 µM; in assay [5], 0.983 µM; in assay [6] it was 0.121 µM. In addition, the GI50 in assay [7] was 1.23 µM; in assay [8] it was 1.43 µM; in assay [9], 1.85 µM; in assay [10] it was 17.1 µM. Further, the TGI in [1] was greater than 50 µM; in assay [2], greater than 50 µM; in [3] it was 4.44 µM; in assay [4] it was greater than 50 µM; in [5] it was greater than 50 µM; in assay [6] it was 0.387 µM. The TGI in assay [7], in assay [8], in assay [9] and in assay [10] was greater than 50 µM throughout.
Regarding `COc1ccccc1CNC(=O)C1c2ccccc2C(=O)N(CC(C)C)C1c1cccs1` (centres undefined), the GI50 in assay [1] is 23 µM; in assay [2] it was 20.3 µM; in [3] it was 16.9 µM; in assay [4], 26.2 µM; in assay [5], 15.3 µM; in [6] it was 16.8 µM. For the same molecule, the GI50 in assay [7] is 20.5 µM; in [8], 23.9 µM; in [9], 22.4 µM; in [10] it was 26.3 µM. Besides, the TGI was 64.4 µM in assay [1]; greater than 100 µM in [2]; 33.8 µM in assay [3]; greater than 100 µM in assay [4]; 77.6 µM in assay [5]; 39.3 µM in assay [6]. Besides, the TGI in [7] was 60.9 µM; in assay [8] it was greater than 100 µM; in assay [9], greater than 100 µM; in assay [10] it was 66.9 µM.
For `O=[N+]([O-])c1cc(Cl)cc2c1nc(NCCO)c1ccccc12`, the TGI in assay [1] is greater than 82.1 µM; in assay [2], greater than 94 µM; in assay [3], greater than 100 µM; in assay [4], greater than 100 µM; in assay [5], greater than 100 µM; in assay [6], greater than 100 µM. Also, the TGI in [7] is greater than 56.2 µM; in assay [8] it was greater than 100 µM; in assay [9] it was greater than 100 µM; in assay [10], greater than 60.5 µM.
With `CN(C)CCOc1nc2c3cccnc3cc(-c3cccc(Cl)c3)c2c2ncccc12`, the GI50 was 6.11 µM in assay [1]; 1.13 µM in assay [2]; 1.65 µM in assay [3]; 1.3 µM in [4]; 1.06 µM in assay [5]; 1.5 µM in [6]. Further, the GI50 in [7] was 2.08 µM; in assay [8], 1.56 µM; in assay [9], 0.905 µM; in assay [10] it was 1.52 µM. For the same molecule, the TGI was 19.9 µM in [1]; 2.74 µM in assay [2]; 3.08 µM in assay [3]; 3.19 µM in assay [4]; 2.32 µM in [5]; 2.93 µM in [6]. Moreover, the TGI in assay [7] came to 4.5 µM; in assay [8] it was 3.03 µM; in [9] it was 3.2 µM; in [10], 4.04 µM.
Consider `COc1cccc(Cn2cc3c(c2)-c2oncc2CC3)c1`, for which the GI50 in assay [1] was 6.85 µM; in assay [2], 0.315 µM; in [3], 0.266 µM; in assay [4], 1.3 µM; in assay [5], 0.43 µM; in [6] it was 0.0769 µM. Further, the GI50 in [7] is 0.247 µM; in [8], 0.386 µM; in [9], 0.801 µM; in assay [10], 0.803 µM. In addition, the TGI in [1] is greater than 100 µM; in assay [2] it was greater than 100 µM; in assay [4], greater than 85.4 µM; in assay [5] it was 29.4 µM; in assay [6], 0.327 µM; in assay [7], 0.762 µM. In addition, the TGI in [8] was 35.8 µM; in assay [9], greater than 100 µM; in assay [10] it was greater than 100 µM.
`CC(C)=CCC/C(C)=C/CC/C(=C/COP(=O)(OCc1ccc([N+](=O)[O-])o1)N(C)CCCCCl)CC=C(C)C` (centres undefined): the GI50 is 2.31 µM in [1]; 9.45 µM in [2]; 3.52 µM in assay [3]; 11.9 µM in assay [4]; 2.06 µM in assay [5]; 4.98 µM in [6]. The GI50 was 4.81 µM in [7], 2.78 µM in [8], 3.39 µM in assay [9] and 14.6 µM in [10]. For the same molecule, the TGI is 7 µM in assay [1]; greater than 100 µM in assay [2]; 11.9 µM in assay [3]; 48.3 µM in assay [4]; 7.97 µM in [5]; 23.7 µM in assay [6]. In addition, the TGI in [7] is greater than 100 µM; in [8], 11.8 µM; in [9], 14.4 µM; in assay [10], 30.8 µM.
On to `BrC(Br)(Br)c1cnc2ccccc2n1`, for which the GI50 was 2.4 µM in [1]; 1.12 µM in assay [2]; 2.21 µM in [3]; 1.46 µM in assay [4]; 1.1 µM in assay [5]; 2.14 µM in assay [6]. Moreover, the GI50 in assay [7] is 1.97 µM; in assay [8], 1.3 µM; in [9], 2.2 µM; in assay [10], 1.55 µM. The TGI worked out at 6.84 µM in [1]; 3.55 µM in assay [2]; 4.86 µM in [3]; 3.98 µM in [4]; 2.66 µM in assay [5]; 6.29 µM in assay [6]. The TGI in [7] came out at 4.16 µM; in assay [8] it was 3.17 µM; in assay [9] it was 6.8 µM; in assay [10], 3.02 µM.
Take `CCOC(=O)N1C/C(=C/c2ccc(OC)cc2)C(=O)/C(=C/c2ccc(OC)cc2)C1`: the GI50 is 2.01 µM in [1]; 1.72 µM in assay [2]; 1.81 µM in assay [3]; 2.77 µM in assay [4]; 0.21 µM in assay [5]; 1.19 µM in assay [6]. In addition, the GI50 was 3.02 µM in assay [7], 1.74 µM in [8], 2.44 µM in [9] and 2.91 µM in [10]. The TGI in [1] was 4.47 µM; in [2] it was greater than 100 µM; in assay [3], 3.7 µM; in assay [4], greater than 31 µM; in assay [5], 0.579 µM; in [6], 4.71 µM. In addition, the TGI in assay [7] is greater than 25.4 µM; in [8], 3.54 µM; in assay [9], greater than 21.2 µM; in [10], 8.58 µM.
For the molecule `O=C(N=Nc1c(O)[nH]c2c(Cl)cc(Cl)cc12)c1ccncc1`, the TGI is greater than 100 µM in assay [1]; 99.5 µM in assay [2]; 51.1 µM in assay [3]; 57.2 µM in [4]; 39.2 µM in assay [5]; 33.7 µM in [6]. The TGI in assay [7] is greater than 100 µM; in assay [8], 41.6 µM; in assay [9], greater than 100 µM; in assay [10], greater than 100 µM.
`Cc1ccccc1-n1c(/C=C\c2ccccn2)nc2ccccc2c1=O`: the GI50 is 7.44 µM in assay [1]; 4.42 µM in assay [2]; 18.6 µM in assay [3]; 18.1 µM in assay [4]; 6.87 µM in assay [5]; 8.23 µM in assay [6]. For the same molecule, the GI50 in assay [7] is 6.12 µM; in assay [8] it was 11 µM; in [9] it was 13.2 µM; in assay [10] it was 32.6 µM. Besides, the TGI in assay [1] was 22.3 µM; in [2], 90.2 µM; in assay [3], 55 µM; in assay [4] it was greater than 100 µM; in assay [5], 22 µM; in assay [6] it was 53 µM. Besides, the TGI was greater than 100 µM in assay [7], 25.8 µM in [8], 63.9 µM in assay [9] and greater than 100 µM in assay [10].
Consider `COC(=O)c1c2c(c(C)[n+]([O-])c1C)C(=O)C(NCc1cccc(OC)c1)=CC2=O`, for which the GI50 in [1] was 3.49 µM; in assay [2], 2.98 µM; in [3], 2.02 µM; in [4], 1.27 µM; in [5] it was 2.53 µM; in [6], 1.67 µM. Also, the GI50 is 1.78 µM in [7], 2.65 µM in assay [8], 1.69 µM in assay [9] and 4.55 µM in assay [10]. Also, the TGI is 13.4 µM in [1]; greater than 100 µM in assay [2]; 4.15 µM in [3]; 2.55 µM in [4]; 10 µM in assay [5]; 3.05 µM in assay [6]. The TGI was 5.39 µM in [7], 10.6 µM in [8], 4.11 µM in [9] and 22.7 µM in [10].
